The text below walks through data of patent publication US8609836B2, “4-aryl-2-anilino-pyrimidines” (Janssen Pharmaceutica NV, priority 2008, dated 2013).

For one test, the target named is GSK3β (h) (Homo sapiens, UniProt P49841). The test can be described thus: GSK-3β human kinase inhibition, SPA. Type of test: biochemical. The conditions noted are these: read-out: GSK3b pIC50 (converted). The procedure, abridged:
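Scintillation proximity assay: GSK3β (1 μg/ml) with 1 μM biotinylated peptide, 1 μM ATP plus [γ-33P]ATP in Tris pH 7.4, MgCl2, DTT. 60 min at room temperature, stopped with EDTA and streptavidin PVT beads; phosphorylation read by Leadseeker imaging.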

The target in a further test is PLK2 (h) (Homo sapiens, UniProt Q9NYY3). The test can be described thus: PLK2 human kinase inhibition, SPA. Type of test: biochemical. The conditions noted are these: read-out: PLK2 pIC50 (converted). A digest of the protocol: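 SPA read on Leadseeker: PLK2 (30 μg/ml) with 2 μM biotinylated peptide, 0.1 μM ATP plus 2 nM [γ-33P]ATP in 50 mM Hepes pH 8.0, 2 mM MnCl2, 1 mM DTT. Reaction ran 20 min at room temperature, then EDTA stop and streptavidin PVT beads.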

A further test has as its system HCT-116. The test can be described thus: Cellular proliferation assay (Alamar blue), HCT-116. Type of test: cell-based. Particulars: Homo sapiens, 10% FCS, 72 hours with compound, Alamar blue 4 h. A digest of the protocol:
(§1)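 24 h seeding without compound, 10% FCS, 37° C/5% CO2; 72 h compound; Alamar blue (resazurin 9 μg/ml, ferro-/ferricyanide 90 μM) 4 h HCT-116, 6 h U87-MG, 24 h A2780/MDA-MB-231; fluorescence 544/590 nm vs control cells.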
A general note: Resazurin is reduced to fluorescent resorufin, in cell work by metabolically active cells.

The next test concerns U87-MG. Kind of test: Cellular proliferation assay (Alamar blue), U87-MG. Type of test: cell-based. Particulars: Homo sapiens, U-87 MG; 10% FCS; 72 hours with compound; Alamar blue 6 h; read-out: U87-MG (cellular proliferation assay, Table 4) (converted). The procedure, abridged: as §1
A further test has as its system H1299. Kind of test: Cellular proliferation assay (Alamar blue), H1299. Type of test: cell-based. Particulars: Homo sapiens, NCI-H1299; 10% FCS; 72 hours with compound; Alamar blue 4 h. The procedure, abridged:
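This proliferation assay on NCI-H1299 cells used an initial 24-hour compound-free incubation after seeding, followed by 72 hours of compound treatment with 10% FCS serum at 37° C. and 5% (v/v) CO2. Viable cells were quantified by a 4 h Alamar blue incubation and fluorescent plate reading at 544 nm/590 nm, and effects were expressed relative to control cells.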

The next test concerns the target CDK4/CyclinD1 (h) (Homo sapiens, UniProt P11802). Kind of test: CDK4/CyclinD1 human kinase inhibition, SPA with GST-pRb substrate. Type of test: biochemical. Particulars: read-out: CDK4 pIC50 (converted). The procedure, abridged:
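Human CDK4/CyclinD1 (2.5 μg/ml) was incubated with 40 μg/ml GST-pRb and 2 nM [γ-33P]ATP in 50 mM Hepes pH 7.5, 8 mM NaF, 20 mM MgCl2, 1 mM DTT for 60 min at room temperature. EDTA stop with glutathione SPA beads; phosphorylation read by scintillation counting.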

A further test addresses PLK3 (h) (Homo sapiens, UniProt Q9H4B4). Kind of test: PLK3 human kinase inhibition, SPA. Type of test: biochemical. Particulars: read-out: PLK3 pIC50 (converted). The procedure, abridged: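 SPA: PLK3 (h) at 30 μg/ml with 2 μM biotinylated peptide, 0.1 μM ATP plus 2 nM [γ-33P]ATP in 50 mM Hepes pH 8.0, 2 mM MnCl2 and 1 mM DTT. Incubated 20 min at room temperature, then stopped with EDTA and streptavidin PVT beads. Scintillation imaged on Leadseeker.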

The next test relates to MDA-MB-231. The test can be described thus: Cellular proliferation assay (Alamar blue), MDA-MB-231. Type of test: cell-based. Particulars: Homo sapiens, 10% FCS, 72 hours with compound, Alamar blue 24 h, read-out: MDA/MB231 (cellular proliferation assay, Table 4) (converted). A digest of the protocol:
as §1

The test system of a further test is A2780. Kind of test: Cellular proliferation assay (Alamar blue), A2780. Type of test: cell-based. The conditions noted are these: Homo sapiens, 10% FCS, 72 hours with compound, Alamar blue 24 h, read-out: A2780 (cellular proliferation assay, Table 4) (converted). A digest of the protocol: as §1
A further test deals with CDK1/CyclinB (h) (Homo sapiens, UniProt P06493). The test can be described thus: CDK1/CyclinB human kinase inhibition, Invitrogen's FRET assay (Z'lyte). Type of test: biochemical. The conditions noted are these: read-out: CDK1 pIC50 (converted). The procedure, abridged:
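Z'lyte FRET assay: human CDK1/CyclinB (0.2 μg/ml) with 2 μM Ser/Thr peptide 12 and 10 μM ATP in 50 mM Hepes pH 7.5, MgCl2, EGTA, Brij-35, 60 min at room temperature. Protease development 60 min, then emission ratio 460/538 nm read with excitation at 390 nm.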

Sequence of PLK3 (h) (Q9H4B4 whole entry): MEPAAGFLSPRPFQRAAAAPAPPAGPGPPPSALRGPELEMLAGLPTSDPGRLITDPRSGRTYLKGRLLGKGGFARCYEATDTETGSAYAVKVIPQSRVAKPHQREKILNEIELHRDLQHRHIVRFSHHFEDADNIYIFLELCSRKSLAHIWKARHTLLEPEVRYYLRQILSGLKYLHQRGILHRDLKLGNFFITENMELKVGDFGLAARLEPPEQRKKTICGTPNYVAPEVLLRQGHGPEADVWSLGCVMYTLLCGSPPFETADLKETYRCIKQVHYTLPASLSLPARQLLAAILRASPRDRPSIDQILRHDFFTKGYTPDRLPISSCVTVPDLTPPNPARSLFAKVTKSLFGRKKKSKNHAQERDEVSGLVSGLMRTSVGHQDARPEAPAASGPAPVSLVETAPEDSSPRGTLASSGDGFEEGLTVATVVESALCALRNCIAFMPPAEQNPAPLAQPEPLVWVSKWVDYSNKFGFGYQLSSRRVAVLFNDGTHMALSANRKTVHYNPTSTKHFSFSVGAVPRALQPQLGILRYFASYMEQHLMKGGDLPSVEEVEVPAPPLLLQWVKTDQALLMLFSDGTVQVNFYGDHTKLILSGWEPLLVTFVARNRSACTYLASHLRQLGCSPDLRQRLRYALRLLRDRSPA
Sequence of GSK3β (h) (P49841 whole entry): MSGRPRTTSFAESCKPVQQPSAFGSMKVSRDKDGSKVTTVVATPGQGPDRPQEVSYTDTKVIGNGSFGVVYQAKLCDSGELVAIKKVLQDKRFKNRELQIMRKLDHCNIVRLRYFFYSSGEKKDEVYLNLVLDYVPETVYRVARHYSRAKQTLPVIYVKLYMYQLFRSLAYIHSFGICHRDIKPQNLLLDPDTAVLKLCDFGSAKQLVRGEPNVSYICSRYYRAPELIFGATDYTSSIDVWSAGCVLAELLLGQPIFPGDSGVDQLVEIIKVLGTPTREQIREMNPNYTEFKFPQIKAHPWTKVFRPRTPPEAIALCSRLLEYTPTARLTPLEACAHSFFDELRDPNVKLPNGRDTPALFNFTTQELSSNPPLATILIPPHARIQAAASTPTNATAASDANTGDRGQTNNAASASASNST
Sequence of CDK4/CyclinD1 (h) (P11802 whole entry): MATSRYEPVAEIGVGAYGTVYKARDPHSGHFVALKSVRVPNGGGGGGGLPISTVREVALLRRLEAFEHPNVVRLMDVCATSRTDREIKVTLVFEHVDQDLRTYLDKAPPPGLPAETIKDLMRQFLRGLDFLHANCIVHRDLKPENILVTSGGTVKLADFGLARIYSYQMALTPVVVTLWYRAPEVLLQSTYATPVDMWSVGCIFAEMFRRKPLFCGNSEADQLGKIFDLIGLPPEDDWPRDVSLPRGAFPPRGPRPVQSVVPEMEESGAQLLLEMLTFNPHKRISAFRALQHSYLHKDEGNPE
Sequence of CDK4/CyclinD1 (h) (P24385 whole entry partner): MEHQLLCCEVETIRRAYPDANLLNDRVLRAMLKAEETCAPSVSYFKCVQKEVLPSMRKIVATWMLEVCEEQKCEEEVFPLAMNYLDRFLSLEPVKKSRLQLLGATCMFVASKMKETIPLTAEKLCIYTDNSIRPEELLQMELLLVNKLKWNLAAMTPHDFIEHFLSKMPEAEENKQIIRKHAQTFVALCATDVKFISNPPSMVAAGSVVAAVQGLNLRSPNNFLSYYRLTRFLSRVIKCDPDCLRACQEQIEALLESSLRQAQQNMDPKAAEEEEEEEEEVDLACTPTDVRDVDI
Sequence of CDK1/CyclinB (h) (P06493 whole entry): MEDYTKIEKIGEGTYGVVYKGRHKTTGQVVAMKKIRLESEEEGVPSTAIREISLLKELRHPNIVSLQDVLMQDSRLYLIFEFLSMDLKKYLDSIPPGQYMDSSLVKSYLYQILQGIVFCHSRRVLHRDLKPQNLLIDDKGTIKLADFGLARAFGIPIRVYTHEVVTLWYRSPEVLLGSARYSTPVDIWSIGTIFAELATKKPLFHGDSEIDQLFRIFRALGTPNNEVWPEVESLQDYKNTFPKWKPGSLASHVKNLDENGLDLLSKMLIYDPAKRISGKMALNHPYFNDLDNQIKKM
Sequence of CDK1/CyclinB (h) (P14635 whole entry partner): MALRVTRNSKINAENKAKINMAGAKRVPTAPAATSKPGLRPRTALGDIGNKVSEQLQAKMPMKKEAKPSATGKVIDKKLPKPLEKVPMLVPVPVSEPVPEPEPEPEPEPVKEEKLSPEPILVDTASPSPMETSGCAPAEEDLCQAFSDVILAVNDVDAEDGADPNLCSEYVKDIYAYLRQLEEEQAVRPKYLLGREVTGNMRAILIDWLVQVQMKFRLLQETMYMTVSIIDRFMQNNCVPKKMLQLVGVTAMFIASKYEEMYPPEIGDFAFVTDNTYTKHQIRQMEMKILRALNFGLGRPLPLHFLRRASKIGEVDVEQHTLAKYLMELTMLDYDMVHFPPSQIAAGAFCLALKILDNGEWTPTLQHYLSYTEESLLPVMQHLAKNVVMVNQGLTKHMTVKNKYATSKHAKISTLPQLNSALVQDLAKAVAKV
Sequence of PLK2 (h) (Q9NYY3 whole entry): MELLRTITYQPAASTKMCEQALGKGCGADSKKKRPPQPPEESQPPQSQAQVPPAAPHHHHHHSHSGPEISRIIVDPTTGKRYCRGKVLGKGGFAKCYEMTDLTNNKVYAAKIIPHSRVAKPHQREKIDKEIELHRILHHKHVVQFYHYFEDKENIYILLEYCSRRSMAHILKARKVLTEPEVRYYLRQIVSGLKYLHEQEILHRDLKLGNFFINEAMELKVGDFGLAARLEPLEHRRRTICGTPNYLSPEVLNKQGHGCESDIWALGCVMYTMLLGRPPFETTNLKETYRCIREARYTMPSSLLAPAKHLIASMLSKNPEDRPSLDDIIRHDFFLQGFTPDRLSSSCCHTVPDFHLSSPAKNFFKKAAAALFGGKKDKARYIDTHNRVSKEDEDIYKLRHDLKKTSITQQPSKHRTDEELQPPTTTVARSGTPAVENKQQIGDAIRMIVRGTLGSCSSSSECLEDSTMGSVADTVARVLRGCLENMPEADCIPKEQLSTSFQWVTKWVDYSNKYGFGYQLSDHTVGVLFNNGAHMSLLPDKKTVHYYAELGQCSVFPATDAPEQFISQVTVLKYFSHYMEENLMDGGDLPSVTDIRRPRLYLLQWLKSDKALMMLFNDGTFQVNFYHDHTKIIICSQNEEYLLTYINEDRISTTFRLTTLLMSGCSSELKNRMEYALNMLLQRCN

Take `O=C1NCc2cccc(c2)-c2ccnc(n2)Nc2ccc(cc2)CN[C@H]1Cc1ccccc1` [Compound 192]: the IC50 on GSK3β (h) was more than 10000 nM; at PLK2 (h), more than 10 µM; in the test with HCT-116, more than 10 µM; in the test with U87-MG, more than 10 µM; with H1299 it was more than 10 µM; at CDK4/CyclinD1 (h) it was more than 10 µM. Moreover, the IC50 on PLK3 (h), in the test with MDA-MB-231, in the test on A2780 and on CDK1/CyclinB (h) was more than 10 µM throughout.
With `O=C1NCc2cccc(c2)-c2ccnc(n2)Nc2cc(cc(C(=O)N3CCOCC3)c2)CN2CCC[C@@H]12` [Compound 32], the IC50 on GSK3β (h) was 186 nM; on PLK2 (h), more than 10 µM; in the test with HCT-116 it was 5.13 µM; in the test with U87-MG it was more than 10 µM; in the test with H1299 it was more than 10 µM; on CDK4/CyclinD1 (h) it was 3.31 µM. In addition, the IC50 at PLK3 (h) was more than 10 µM; in the test with MDA-MB-231 it was more than 10 µM; in the test on A2780, more than 10 µM; on CDK1/CyclinB (h), 0.55 µM.
As for `O=C1NCc2cccc(c2)-c2ccnc(n2)Nc2cc(ccc2Cl)CN[C@H]1Cc1ccccc1` [Compound 189], the IC50 on GSK3β (h) is 6920 nM; at PLK2 (h) it was more than 10 µM; in the test on HCT-116, more than 10 µM; in the test on U87-MG it was more than 10 µM; with H1299, more than 10 µM; at CDK4/CyclinD1 (h) it was 5.75 µM. Further, the IC50 on PLK3 (h) is more than 10 µM; in the test with MDA-MB-231, more than 10 µM; in the test with A2780 it was more than 10 µM; on CDK1/CyclinB (h), 5.62 µM.
For the compound `O=C1NCc2cccc(c2)-c2ccnc(n2)Nc2ccc(C(=O)N3CCOCC3)c(c2)CN2CCC[C@@H]12` [Compound 26], the IC50 on GSK3β (h) was 67.6 nM; at PLK2 (h), more than 10 µM; with HCT-116, 2.19 µM; with U87-MG, more than 10 µM; with H1299 it was 2.45 µM; on CDK4/CyclinD1 (h), more than 10 µM. The IC50 on PLK3 (h) is more than 10 µM; in the test with MDA-MB-231, 8.13 µM; in the test with A2780, 4.17 µM; at CDK1/CyclinB (h), more than 10 µM.
`O=C1CN2CCN(CC2)Cc2cc(ccc2N2CCOCC2)Nc2nccc(n2)-c2cccc(c2)CN1` [Compound 20]: the IC50 on GSK3β (h) is 6030 nM; at PLK2 (h), more than 10 µM; with HCT-116, more than 10 µM; in the test on U87-MG, more than 10 µM; in the test with H1299, more than 10 µM; at CDK4/CyclinD1 (h), more than 10 µM. In addition, the IC50 is more than 10 µM on PLK3 (h), more than 3.02 µM in the test with MDA-MB-231, more than 10 µM in the test with A2780 and more than 10 µM on CDK1/CyclinB (h).
For the compound `COc1ccc2cc1CN[C@@H](CO)C(=O)N(C)CCCN(C)c1ccc(cn1)-c1ccnc(n1)N2` [Compound 11], the IC50 at GSK3β (h) is 2090 nM; at PLK2 (h), more than 10 µM; in the test with HCT-116, more than 10 µM; in the test with U87-MG it was more than 10 µM; in the test on H1299 it was more than 10 µM; at CDK4/CyclinD1 (h) it was more than 10 µM. For the same compound, the IC50 at PLK3 (h), in the test on MDA-MB-231, in the test on A2780 and on CDK1/CyclinB (h) was more than 10 µM each time.
For the compound `O=C1NCc2cccc(c2)-c2ccnc(n2)Nc2cccc(c2)CN[C@H]1Cc1ccccc1` [Compound 185], the IC50 at GSK3β (h) is 27.5 nM; on PLK2 (h), more than 10 µM; in the test on HCT-116, 6.92 µM; in the test with U87-MG it was 6.76 µM; with H1299, 2.63 µM; on CDK4/CyclinD1 (h), more than 10 µM. Moreover, the IC50 at PLK3 (h) was more than 10 µM; with MDA-MB-231, more than 10 µM; with A2780, more than 10 µM; on CDK1/CyclinB (h), 4.79 µM.
Regarding `COc1cc2cc(c1)Nc1nccc(n1)-c1ccc(cc1)CN(C)CCCNC(=O)[C@@H]1CCCN1C2` [Compound 156], the IC50 is more than 10000 nM at GSK3β (h); more than 3.02 µM at PLK2 (h); more than 10 µM in the test on HCT-116; more than 10 µM with U87-MG; more than 10 µM in the test on H1299; more than 10 µM on CDK4/CyclinD1 (h). The IC50 at PLK3 (h) is 8.51 µM; in the test on MDA-MB-231, more than 10 µM; in the test with A2780 it was more than 10 µM; at CDK1/CyclinB (h), more than 10 µM.
